US20240262826A1, “WILD TYPE KIT INHIBITORS” (Blueprint Medicines Corporation, priority 2022, published 2024)

Each compound was assayed against wild type c-kit (Homo sapiens (Human), UniProt P10721) (assay: PathScan phospho c-kit (Tyr719) sandwich ELISA in SCF-stimulated M-07e cells (pKIT assay)). Settings: ELISA assay (values not marked *).
Assay type: cell-based
In short: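 Tyr719-phosphorylated c-kit was measured by colorimetric (TMB) sandwich ELISA in lysates of M-07e cells. Cells were starved 4 h without serum or GM-CSF, dosed 60 min at 37 °C with compound (8 points, duplicate, 0.25% DMSO), and stimulated 10 min with human SCF (500 ng/mL as added). IC50 values came from 4-parameter logistic regression.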

wild type c-kit, sequence (P10721 26-976): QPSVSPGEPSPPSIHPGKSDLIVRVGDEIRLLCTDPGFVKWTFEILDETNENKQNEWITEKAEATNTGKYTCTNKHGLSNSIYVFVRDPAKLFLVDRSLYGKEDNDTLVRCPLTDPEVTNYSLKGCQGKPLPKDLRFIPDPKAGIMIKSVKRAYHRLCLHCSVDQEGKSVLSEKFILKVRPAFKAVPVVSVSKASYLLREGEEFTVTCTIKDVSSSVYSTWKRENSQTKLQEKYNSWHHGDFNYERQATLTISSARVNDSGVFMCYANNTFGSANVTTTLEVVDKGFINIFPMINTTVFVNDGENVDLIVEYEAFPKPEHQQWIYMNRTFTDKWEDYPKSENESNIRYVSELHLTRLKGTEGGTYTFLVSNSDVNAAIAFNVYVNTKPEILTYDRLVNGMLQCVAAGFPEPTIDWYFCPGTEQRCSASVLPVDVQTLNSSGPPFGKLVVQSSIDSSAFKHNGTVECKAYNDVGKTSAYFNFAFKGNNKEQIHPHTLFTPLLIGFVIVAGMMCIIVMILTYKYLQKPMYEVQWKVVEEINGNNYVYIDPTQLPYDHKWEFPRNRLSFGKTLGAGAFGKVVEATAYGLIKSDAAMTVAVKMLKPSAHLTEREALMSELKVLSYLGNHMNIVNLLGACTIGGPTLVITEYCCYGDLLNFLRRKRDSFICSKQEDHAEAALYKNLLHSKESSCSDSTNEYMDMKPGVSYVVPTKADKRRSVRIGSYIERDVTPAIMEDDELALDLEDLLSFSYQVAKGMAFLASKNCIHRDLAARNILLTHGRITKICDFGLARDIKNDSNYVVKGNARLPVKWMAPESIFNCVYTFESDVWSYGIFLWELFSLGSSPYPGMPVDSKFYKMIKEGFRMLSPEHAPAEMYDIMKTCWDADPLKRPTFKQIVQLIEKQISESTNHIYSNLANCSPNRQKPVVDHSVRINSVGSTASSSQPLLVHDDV

Which IC50 does the source give for `Cc1ccc(-c2nnn(C)n2)cc1NC(=O)c1cnn2ccc(-c3cnn(CCCS(C)(=N)=O)c3)cc12` (centres unmarked) [Example 232, N-(2-methyl-5-(2-methyl-2H-tetrazol-5-yl)phenyl)-5-(1-(3-(S-methylsulfonimidoyl)propyl)-1H-pyrazol-4-yl)pyrazolo[1,5-a]pyridine-3-carboxamide] here?
Its IC50 is 26 nM.

For `Cc1nn(C(CO)CO)c(C)c1-c1ccn2ncc(C(=O)Nc3cc(-c4nnn(C5CC5)n4)ccc3Cl)c2c1` [Example 276, N-(2-chloro-5-(2-cyclopropyl-2H-tetrazol-5-yl)phenyl)-5-(1-(1,3-dihydroxypropan-2-yl)-3,5-dimethyl-1H-pyrazol-4-yl)pyrazolo[1,5-a]pyridine-3-carboxamide], which IC50 is on record?
Its IC50 is 0.3 nM.

Which IC50 does the source give for `Cc1ccc(-n2nnc([C@H]3CC3(F)F)n2)cc1NC(=O)c1cnn2ccc(-c3cnn(CCO)c3)cc12` (single isomer, unassigned) [Example 211, (R)-N-(5-(5-(2,2-difluorocyclopropyl)-2H-tetrazol-2-yl)-2-methylphenyl)-5-(1-(2-hydroxyethyl)-1H-pyrazol-4-yl)pyrazolo[1,5-a]pyridine-3-carboxamide or (S)-N-(5-(5-(2,2-difluorocyclopropyl)-2H-tetrazol-2-yl)-2-methylphenyl)-5-(1-(2-hydroxyethyl)-1H-pyrazol-4-yl)pyrazolo[1,5-a]pyridine-3-carboxamide] here?
The IC50 was 2.6 nM.

Which IC50 does the source give for `COCCNc1ccn2ncc(C(=O)Nc3cc(-c4nnn(C[C@H]5CC5(F)F)n4)ccc3C)c2c1` (single isomer, unassigned) [Example 124, (R)-N-(5-(2-((2,2-difluorocyclopropyl)methyl)-2H-tetrazol-5-yl)-2-methylphenyl)-5-((2-methoxyethyl)amino)pyrazolo[1,5-a]pyridine-3-carboxamide or (S)-N-(5-(2-((2,2-difluorocyclopropyl)methyl)-2H-tetrazol-5-yl)-2-methylphenyl)-5-((2-methoxyethyl)amino)pyrazolo[1,5-a]pyridine-3-carboxamide] here?
The IC50 was 1.8 nM.

For `Cc1ccc(-c2nnn(C3CC3)n2)cc1NC(=O)c1cnn2ccc(-c3cnn(CC(C)(C)O)c3)cc12` [Example 242, N-(5-(2-cyclopropyl-2H-tetrazol-5-yl)-2-methylphenyl)-5-(1-(2-hydroxy-2-methylpropyl)-1H-pyrazol-4-yl)pyrazolo[1,5-a]pyridine-3-carboxamide], which IC50 is on record?
Its IC50 is 0.5 nM.

How did the IC50 turn out when `COC(=O)N1CC(n2nnc(-c3ccc(C)c(NC(=O)c4cnn5cc(N6CCOCC6)ccc45)c3)n2)C1` [Example 159, methyl 3-(5-(4-methyl-3-(6-morpholinopyrazolo[1,5-a]pyridine-3-carboxamido)phenyl)-2H-tetrazol-2-yl)azetidine-1-carboxylate] was run?
Its IC50 is 20.1 nM.

`COC[C@@H](C)Nc1ccn2ncc(C(=O)Nc3cc(-c4nnn(C5CN(C(=O)OC)C5)n4)ccc3C)c2c1` [Example 135, methyl (R)-3-(5-(3-(5-((1-methoxypropan-2-yl)amino)pyrazolo[1,5-a]pyridine-3-carboxamido)-4-methylphenyl)-2H-tetrazol-2-yl)azetidine-1-carboxylate] was tested. Which IC50 did it give?
The IC50 was 53.8 nM.

For `Cc1cc(F)c(NC(=O)c2cnn3ccc(-c4cnn(CC(C)(C)O)c4)cc23)cc1-c1nnn(C2CC2)n1` [Example 215, N-(5-(2-cyclopropyl-2H-tetrazol-5-yl)-2-fluoro-4-methylphenyl)-5-(1-(2-hydroxy-2-methylpropyl)-1H-pyrazol-4-yl)pyrazolo[1,5-a]pyridine-3-carboxamide], which IC50 is on record?
Its IC50 is 23.7 nM.

Which IC50 does the source give for `Cc1ccc(-c2nnn(C3CC3)n2)cc1NC(=O)c1cnn2ccc(-c3cnn([C@@H](C)[C@H](C)O)c3C)cc12` (single isomer, unassigned) [Example 270, N-(5-(2-cyclopropyl-2H-tetrazol-5-yl)-2-methylphenyl)-5-(1-((2S,3S)-3-hydroxybutan-2-yl)-5-methyl-1H-pyrazol-4-yl)pyrazolo[1,5-a]pyridine-3-carboxamide or N-(5-(2-cyclopropyl-2H-tetrazol-5-yl)-2-methylphenyl)-5-(1-((2R,3R)-3-hydroxybutan-2-yl)-5-methyl-1H-pyrazol-4-yl)pyrazolo[1,5-a]pyridine-3-carboxamide] here?
The IC50 was 0.5 nM.

For `Cc1ccc(-c2nnn(CC3CC3)n2)cc1NC(=O)c1cnn2ccccc12` [Example 7, N-(5-(2-(cyclopropylmethyl)-2H-tetrazol-5-yl)-2-methylphenyl)pyrazolo[1,5-a]pyridine-3-carboxamide], which IC50 is on record?
Its IC50 is 13.6 nM.

Which IC50 does the source give for `Cc1cc(F)c(-c2nnn(C3CC(F)(F)C3)n2)cc1NC(=O)c1cnn2ccc(N3CCOCC3)cc12` [Example 59, N-(5-(2-(3,3-difluorocyclobutyl)-2H-tetrazol-5-yl)-4-fluoro-2-methylphenyl)-5-morpholinopyrazolo[1,5-a]pyridine-3-carboxamide] here?
Its IC50 is 4.5 nM.

For `Cc1cc(F)c(-c2nnn(C3CC3)n2)cc1NC(=O)c1cnn2cc(F)c(-c3cn(CC(C)(C)O)nc3C)cc12` [Example 247, N-(5-(2-cyclopropyl-2H-tetrazol-5-yl)-4-fluoro-2-methylphenyl)-6-fluoro-5-(1-(2-hydroxy-2-methylpropyl)-3-methyl-1H-pyrazol-4-yl)pyrazolo[1,5-a]pyridine-3-carboxamide], which IC50 is on record?
The IC50 was 0.5 nM.

For `O=C(Nc1cc(-c2nnn(CC3CC(F)(F)C3)n2)ccc1Cl)c1cnn2ccccc12` [Example 19, N-(2-chloro-5-(2-((3,3-difluorocyclobutyl)methyl)-2H-tetrazol-5-yl)phenyl)pyrazolo[1,5-a]pyridine-3-carboxamide], which IC50 is on record?
The IC50 was 7.5 nM.

Which IC50 does the source give for `Cc1cc(Cl)c(-c2nnn(C3CC3)n2)cc1NC(=O)c1cnn2ccc(-c3cnn(CC(C)(C)O)c3)cc12` [Example 226, N-(4-chloro-5-(2-cyclopropyl-2H-tetrazol-5-yl)-2-methylphenyl)-5-(1-(2-hydroxy-2-methylpropyl)-1H-pyrazol-4-yl)pyrazolo[1,5-a]pyridine-3-carboxamide] here?
Its IC50 is 0.5 nM.

Which IC50 does the source give for `COCCNc1ccn2ncc(C(=O)Nc3cc(-c4nnn(C5CN(C(=O)OC)C5)n4)ccc3F)c2c1` [Example 115, methyl 3-(5-(4-fluoro-3-(5-((2-methoxyethyl)amino)pyrazolo[1,5-a]pyridine-3-carboxamido)phenyl)-2H-tetrazol-2-yl)azetidine-1-carboxylate] here?
Its IC50 is 12.4 nM.

`CCn1nnc(-c2cc(NC(=O)c3cnn4ccc(-c5cn(CC(C)(C)O)nc5C)cc34)c(Cl)cc2F)n1` [Example 265, N-(2-chloro-5-(2-ethyl-2H-tetrazol-5-yl)-4-fluorophenyl)-5-(1-(2-hydroxy-2-methylpropyl)-3-methyl-1H-pyrazol-4-yl)pyrazolo[1,5-a]pyridine-3-carboxamide] was tested. Which IC50 did it give?
Its IC50 is 0.8 nM.

With `O=C(Nc1cc(-c2nnn(C3CC(F)(F)C3)n2)ccc1Cl)c1cnn2ccc(N3CCOCC3)cc12` [Example 169, N-(2-chloro-5-(2-(3,3-difluorocyclobutyl)-2H-tetrazol-5-yl)phenyl)-5-morpholinopyrazolo[1,5-a]pyridine-3-carboxamide] as the compound, how does the IC50 read?
Its IC50 is 4.7 nM.

Which IC50 does the source give for `COC(=O)N1CC(n2nnc(-c3ccc(C)c(NC(=O)c4cnn5ccc(N[C@@H]6CCOC6)cc45)c3)n2)C1` [Example 129, methyl (R)-3-(5-(4-methyl-3-(5-((tetrahydrofuran-3-yl)amino)pyrazolo[1,5-a]pyridine-3-carboxamido)phenyl)-2H-tetrazol-2-yl)azetidine-1-carboxylate] here?
Its IC50 is 29.6 nM.

How did the IC50 turn out when `COCCNc1cc2c(C(=O)Nc3cc(-c4nnn(C5CN(C(=O)OC)C5)n4)ccc3C)cnn2cc1C` [Example 144, methyl 3-(5-(3-(5-((2-methoxyethyl)amino)-6-methylpyrazolo[1,5-a]pyridine-3-carboxamido)-4-methylphenyl)-2H-tetrazol-2-yl)azetidine-1-carboxylate] was run?
Its IC50 is 23.4 nM.

For `Cc1nn([C@@H](C)[C@H](C)O)cc1-c1ccn2ncc(C(=O)Nc3cc(-c4nnn(C5CC5)n4)c(F)cc3Cl)c2c1` (single isomer, unassigned) [Example 288, N-(2-chloro-5-(2-cyclopropyl-2H-tetrazol-5-yl)-4-fluorophenyl)-5-(1-((2S,3S)-3-hydroxybutan-2-yl)-3-methyl-1H-pyrazol-4-yl)pyrazolo[1,5-a]pyridine-3-carboxamide or N-(2-chloro-5-(2-cyclopropyl-2H-tetrazol-5-yl)-4-fluorophenyl)-5-(1-((2R,3R)-3-hydroxybutan-2-yl)-3-methyl-1H-pyrazol-4-yl)pyrazolo[1,5-a]pyridine-3-carboxamide], which IC50 is on record?
The IC50 was 0.4 nM.

For `Cc1ccc(-c2nnn(C3CC(F)(F)C3)n2)cc1NC(=O)c1cnn2ccc(N3CC[C@@](C)(O)C3)cc12` (single isomer, unassigned) [Example 86, (S)—N-(5-(2-(3,3-difluorocyclobutyl)-2H-tetrazol-5-yl)-2-methylphenyl)-5-(3-hydroxy-3-methylpyrrolidin-1-yl)pyrazolo[1,5-a]pyridine-3-carboxamide or (R)—N-(5-(2-(3,3-difluorocyclobutyl)-2H-tetrazol-5-yl)-2-methylphenyl)-5-(3-hydroxy-3-methylpyrrolidin-1-yl)pyrazolo[1,5-a]pyridine-3-carboxamide], which IC50 is on record?
The IC50 was 8.6 nM.

Which IC50 does the source give for `COCCNc1ccn2ncc(C(=O)Nc3cc(-c4nnn(C[C@@H]5CC5(F)F)n4)ccc3C)c2c1` (single isomer, unassigned) [Example 123, (S)-N-(5-(2-((2,2-difluorocyclopropyl)methyl)-2H-tetrazol-5-yl)-2-methylphenyl)-5-((2-methoxyethyl)amino)pyrazolo[1,5-a]pyridine-3-carboxamide or (R)-N-(5-(2-((2,2-difluorocyclopropyl)methyl)-2H-tetrazol-5-yl)-2-methylphenyl)-5-((2-methoxyethyl)amino)pyrazolo[1,5-a]pyridine-3-carboxamide] here?
Its IC50 is 3.4 nM.

`Cc1ccc(-c2nnn(C3CN(S(=O)(=O)CCC(F)F)C3)n2)cc1NC(=O)c1cnn2ccccc12` [Example 184, N-(5-(2-(1-((3,3-difluoropropyl)sulfonyl)azetidin-3-yl)-2H-tetrazol-5-yl)-2-methylphenyl)pyrazolo[1,5-a]pyridine-3-carboxamide] was tested. Which IC50 did it give?
The IC50 was 6.2 nM.
